Patent publication US11578079B2, “SUMO inhibitor compounds and uses thereof” (CITY OF HOPE, priority 2018, dated 2023)

What was measured:
SUMO = target: T1, SUMO (Homo sapiens, UniProt Q9UBT2); test: SUMO activity (Table I, biological activities); format: biochemical; design: key: + (less active); ++ (active); +++ (most active)
T1 sequence (Q9UBT2 1-640): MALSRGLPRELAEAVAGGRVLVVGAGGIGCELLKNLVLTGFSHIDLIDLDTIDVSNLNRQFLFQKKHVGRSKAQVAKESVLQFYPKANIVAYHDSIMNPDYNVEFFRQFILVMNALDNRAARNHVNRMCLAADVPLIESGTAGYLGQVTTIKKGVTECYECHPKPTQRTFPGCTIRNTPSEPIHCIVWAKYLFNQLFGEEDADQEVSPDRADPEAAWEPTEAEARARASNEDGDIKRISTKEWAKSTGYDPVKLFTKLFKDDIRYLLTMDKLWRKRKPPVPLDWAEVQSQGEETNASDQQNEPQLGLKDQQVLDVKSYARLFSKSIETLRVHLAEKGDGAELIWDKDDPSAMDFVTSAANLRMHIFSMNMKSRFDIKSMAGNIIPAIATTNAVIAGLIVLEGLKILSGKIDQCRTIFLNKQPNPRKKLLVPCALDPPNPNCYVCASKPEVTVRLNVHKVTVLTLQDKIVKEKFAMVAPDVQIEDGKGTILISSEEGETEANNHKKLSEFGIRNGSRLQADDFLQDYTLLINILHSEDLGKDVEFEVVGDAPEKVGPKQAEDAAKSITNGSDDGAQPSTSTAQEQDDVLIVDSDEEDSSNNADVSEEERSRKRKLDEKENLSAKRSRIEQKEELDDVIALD
T1 sequence (Q9UBE0 1-346 partner): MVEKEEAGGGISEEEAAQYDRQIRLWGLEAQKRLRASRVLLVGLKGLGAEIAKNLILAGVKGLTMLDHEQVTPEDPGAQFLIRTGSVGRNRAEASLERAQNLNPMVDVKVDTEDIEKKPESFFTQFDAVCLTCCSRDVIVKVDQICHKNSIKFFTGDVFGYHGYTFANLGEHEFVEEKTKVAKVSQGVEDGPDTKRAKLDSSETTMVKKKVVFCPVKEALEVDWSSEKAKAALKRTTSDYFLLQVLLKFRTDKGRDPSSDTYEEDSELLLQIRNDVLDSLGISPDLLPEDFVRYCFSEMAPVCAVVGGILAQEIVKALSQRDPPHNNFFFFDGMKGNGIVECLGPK

c-Myc = c-Myc activity (Table I, biological activities); design: key: + (less active); ++ (active); +++ (most active)

Row | SMILES | SUMO (SUMO) | c-Myc (c-Myc)
1 | COC(=O)C1=C(C(N)=O)C2C=CC1(C(Cc1ccccc1)Nc1ccccc1)O2 (centres unmarked) [Compound 151] | ++ | +
2 | COC(=O)C1=C(C(=O)NC2CCCCC2)C2C=CC1(C(Cc1ccccc1)Nc1ccccc1)O2 (centres unmarked) [Compound 160] | + | +
3 | COC(=O)C1=C(C(=O)NC(C)(C)C)C2C=CC1(C(Cc1ccccc1)Nc1ccccc1)O2 (centres unmarked) [Compound 161] | + | +
4 | COC(=O)C1=C(C(=O)Nc2ccccc2)C2C=CC1(C(Cc1ccccc1)Nc1ccccc1)O2 (centres unmarked) [Compound 163] | ++ | +
5 | COC(=O)C1=C(C(=O)OC)C2(C(Nc3ccccc3)c3ccccc3)C=CC1O2 (centres unmarked) [Compound 165] | ++ | +
6 | COC(=O)C1=C(C(=O)Nc2ccc(F)cc2)C2C=CC1(C(Cc1ccccc1)Nc1ccccc1)O2 (centres unmarked) [Compound 166] | ++ | +
7 | COC(=O)C1=C(C(=O)OC)C2(C(Cc3ccccc3)Nc3cc(F)cc(F)c3)C=CC1O2 (centres unmarked) [Compound 167] | ++ | +
8 | COC(=O)C1=C(C(=O)OC)C2(C(Cc3ccccc3)Nc3c(F)cccc3F)C=CC1O2 (centres unmarked) [Compound 169] | ++ | +
9 | COC(=O)C1=C(C(=O)OC)C2(C(Cc3ccccc3)Nc3ccc(F)cc3F)C=CC1O2 (centres unmarked) [Compound 171] | ++ | ++
10 | CC#CC(Nc1ccccc1)C12C=CC(O1)C(C(=O)OC)=C2C(=O)OC (centres unmarked) [Compound 172] | ++ | ++
11 | C=CCCC(Nc1ccccc1)C12C=CC(O1)C(C(=O)Nc1ccc(OC)cc1)=C2C(=O)OC (centres unmarked) [Compound 176] | ++ | +
12 | C=CCCC(Nc1ccccc1)C12C=CC(O1)C(C(N)=O)=C2C(=O)OC (centres unmarked) [Compound 177] | + | +
13 | COC(=O)C1=C(C(=O)Nc2ccc(OC)cc2)C2C=CC1(C(Nc1ccccc1)C1CCC1)O2 (centres unmarked) [Compound 178] | ++ | +
14 | COC(=O)C1=C(C(N)=O)C2C=CC1(C(Nc1ccccc1)C1CCC1)O2 (centres unmarked) [Compound 179] | + | +
15 | COC(=O)C1=C(C(=O)Nc2cccc(OC)c2)C2C=CC1(C(Cc1ccccc1)Nc1ccccc1)O2 (centres unmarked) [Compound 180] | + | +
16 | C=CCCC(Nc1ccccc1)C12C=CC(O1)C(C(=O)OC)=C2C(=O)OC (centres unmarked) [Compound 181] | ++ | +
17 | COC(=O)C1=C(C(=O)OC)C2(C(Nc3ccccc3)C3CCC3)C=CC1O2 (centres unmarked) [Compound 184] | ++ | +
18 | COC(=O)C1=C(C(=O)OC)C2(C(Nc3ccccc3)C3CCCC3)C=CC1O2 (centres unmarked) [Compound 186] | ++ | +
19 | COC(=O)C1=C(C(=O)OC)C2(C(CCc3ccccc3)Nc3ccccc3)C=CC1O2 (centres unmarked) [Compound 191] | ++ | +
20 | COC(=O)C1=C(C(=O)NC2CCN(C)CC2)C2C=CC1(C(Cc1ccccc1)Nc1ccccc1)O2 (centres unmarked) [Compound 195] | +++ | ++
21 | COC(=O)C1=C(C(=O)NNc2ccccc2)C2C=CC1(C(Cc1ccccc1)Nc1ccccc1)O2 (centres unmarked) [Compound 200] | ++ | ++
22 | COC(=O)C1=C(C(=O)NCc2ccncc2)C2C=CC1(C(Cc1ccccc1)Nc1ccccc1)O2 (centres unmarked) [Compound 201] | ++ | +
23 | COC(=O)C1=C(C(=O)Nc2ccc(OC)cc2)C2C=CC1(C(Cc1ccccc1)Nc1cc(F)cc(F)c1)O2 (centres unmarked) [Compound 204] | +++ | +

Row | SMILES | SUMO (SUMO) | c-Myc (c-Myc)
24 | COC(=O)C1=C(C(=O)NNc2ccccc2)C2C=CC1(C(Cc1ccccc1)Nc1cc(F)cc(F)c1)O2 (centres unmarked) [Compound 205] | ++ | ++
25 | CNC(=O)C1=C(C(=O)OC)C2(C(Cc3ccccc3)Nc3cc(F)cc(F)c3)C=CC1O2 (centres unmarked) [Compound 208] | ++ | +
26 | COC(=O)C1=C(C(=O)OC)C2(C(Cc3ccccc3)Nc3cc(F)cc(Cl)c3)C=CC1O2 (centres unmarked) [Compound 209] | ++ | +
27 | CCCCC(Nc1cc(F)cc(F)c1)C12C=CC(O1)C(C(=O)OC)=C2C(=O)OC (centres unmarked) [Compound 212] | +++ | +
28 | COC(=O)C1=C(C(=O)O)C2C=CC1(C(Cc1ccccc1)Nc1cc(F)cc(Cl)c1)O2 (centres unmarked) [Compound 214] | ++ | +
29 | COC(=O)C1=C(C(=O)NNc2ccccc2)C2C=CC1(C(Cc1ccccc1)Nc1cc(F)cc(Cl)c1)O2 (centres unmarked) [Compound 215] | ++ | +
30 | COC(=O)C1=C(C(=O)NCc2ccncc2)C2C=CC1(C(Cc1ccccc1)Nc1cc(F)cc(Cl)c1)O2 (centres unmarked) [Compound 216] | ++ | ++
31 | COC(=O)C1=C(C(N)=O)C2C=CC1(C(Cc1ccccc1)Nc1cc(F)cc(Cl)c1)O2 (centres unmarked) [Compound 217] | + | ++
32 | COC(=O)C1=C(C(=O)Nc2ccc(OC)nc2)C2C=CC1(C(Cc1ccccc1)Nc1cc(F)cc(Cl)c1)O2 (centres unmarked) [Compound 218] | +++ | +
33 | COC(=O)C1=C(C(=O)NC2CCN(C)CC2)C2C=CC1(C(Cc1ccccc1)Nc1cc(F)cc(Cl)c1)O2 (centres unmarked) [Compound 219] | ++ | ++
34 | COC(=O)C1=C(C(=O)Nc2ccncc2)C2C=CC1(C(Cc1ccccc1)Nc1cc(F)cc(Cl)c1)O2 (centres unmarked) [Compound 220] | ++ | +
35 | COC(=O)C1=C(C(=O)NNc2ccccn2)C2C=CC1(C(Cc1ccccc1)Nc1ccccc1)O2 (centres unmarked) [Compound 221] | ++ | +
36 | COC(=O)C1=C(C(=O)Nc2cccnc2)C2C=CC1(C(Cc1ccccc1)Nc1ccccc1)O2 (centres unmarked) [Compound 223] | ++ | +
37 | COC(=O)C1=C(C(=O)NCCN(C)C)C2C=CC1(C(Cc1ccccc1)Nc1ccccc1)O2 (centres unmarked) [Compound 224] | +++ | ++
38 | COC(=O)C1=C(C(=O)NC2CCNCC2)C2C=CC1(C(Cc1ccccc1)Nc1ccccc1)O2 (centres unmarked) [Compound 225] | +++ | ++
39 | COC(=O)C1=C(C(=O)NCCN2CCOCC2)C2C=CC1(C(Cc1ccccc1)Nc1cc(F)cc(Cl)c1)O2 (centres unmarked) [Compound 226] | +++ | ++
40 | COC(=O)C1=C(C(=O)NCCN(C)C)C2C=CC1(C(Cc1ccccc1)Nc1cc(F)cc(Cl)c1)O2 (centres unmarked) [Compound 227] | +++ | +
41 | COC(=O)C1=C(C(=O)NC2CCN(C)C2)C2C=CC1(C(Cc1ccccc1)Nc1cc(F)cc(Cl)c1)O2 (centres unmarked) [Compound 238] | +++ | ++
42 | COC(=O)C1=C(C(=O)NC2CCN(C)C2)C2C=CC1(C(Cc1ccccc1)Nc1ccccc1)O2 (centres unmarked) [Compound 239] | +++ | +
43 | COC(=O)C1=C(C(=O)NC2CCN(C)CC2)C2C=CC1(C(Cc1ccccc1)Nc1cc(F)cc(F)c1)O2 (centres unmarked) [Compound 240] | ++ | +
44 | COC(=O)C1=C(C(=O)Nc2cccnc2)C2C=CC1(C(Cc1ccccc1)Nc1cc(F)cc(F)c1)O2 (centres unmarked) [Compound 241] | ++ | ++
45 | COC(=O)C1=C(C(=O)OC)C2(C(Cc3ccc(-c4cc[nH]n4)cc3)Nc3ccccc3)C=CC1O2 (centres unmarked) [Compound 698] | +++ | 
